The results in this text go back to patent US11825838B2, “Tricyclic carboxamides for controlling arthropods” (Bayer CropScience Aktiengesellschaft, priority 2017, dated 2023).

What all share (format): in vivo
Experiment [1] deals with Phaedon cochleariae. Nature of the experiment: Phaedon cochleariae spray test (PHAECO).
For experiment [2], the system named is Myzus persicae. Briefly: Myzus persicae spray test (MYZUPE). The note with it: for efficacy: application rate 100 g/ha, spray, after 5 days. On the procedure: Myzus persicae—Spray Test
To produce a suitable active ingredient formulation, 1 part by weight of active ingredient is dissolved with the specified parts by weight of solvent and made up to the desired concentration with water containing an emulsifier concentration of 1000 ppm. To produce further test concentrations, the formulation is diluted with emulsifier-containing water.
Discs of Chinese cabbage leaves (Brassica pekinensis) infested by all stages of the green peach aphid (Myzus persicae) are sprayed with an active compound preparation of the desired concentration.
After 5 days, the efficacy in % is determined. 100% means that all the aphids have been killed; 0% means that no aphids have been killed.
Myzus Persicae—Spray Test (MYZUPE)
To produce a suitable active compound formulation, 1 part by weight of active compound is dissolved with the specified parts by weight of solvent and made up to the desired concentration with water containing an emulsifier concentration of 1000 ppm. To produce further test concentrations, the formulation is diluted with emulsifier-containing water.
Discs of Chinese cabbage leaves (Brassica pekinensis) infested with all stages of the green peach aphid (Myzus persicae) are sprayed with an active compound formulation of the desired concentration.
After the desired time, the efficacy in % is determined. 100% means that all the aphids have been killed; 0% means that no aphids have been killed.

Experiment [3] concerns Musca domestica. Nature of the experiment: Musca domestica test. The note with it: application rate 100 ppm, adult houseflies, after 2 days.
Experiment [4] deals with Ctenocephalides felis. Briefly: Ctenocephalides felis in vitro contact test with adult cat fleas. The note with it: application rate 5 μg/cm^2 (=500 g/ha), after 48 h, adult cat fleas dead or moribund. On the procedure: Ctenocephalides felis—In Vitro Contact Tests with Adult Cat Fleas
(§1) For the coating of the test tubes, 9 mg of active ingredient are first dissolved in 1 ml of acetone p.a. and then diluted to the desired concentration with acetone p.a. 250 μl of the solution are distributed homogeneously on the inner walls and the base of a 25 ml glass tube by turning and rocking on an orbital shaker (rocking rotation at 30 rpm for 2 h). With 900 ppm of active ingredient solution and internal surface area 44.7 cm^2, given homogeneous distribution, an area-based dose of 5 μg/cm^2 is achieved.
After the solvent has evaporated off, the tubes are populated with 5-10 adult cat fleas (Ctenocephalides felis), sealed with a perforated plastic lid and incubated in a horizontal position at room temperature and ambient humidity. After 48 h, efficacy is determined. To this end, the tubes are stood upright and the fleas are knocked to the base of the tube. Fleas which remain motionless at the base or move in an uncoordinated manner are considered to be dead or moribund.
100% efficacy means that all the fleas were dead or moribund. 0% efficacy means that no fleas were harmed.

Experiment [5] has as its system Tetranychus urticae. Nature of the experiment: Tetranychus urticae spray test, OP-resistant (TETRUR). The note with it: for efficacy: spray, after 6 days.
For experiment [6], the system named is Rhipicephalus sanguineus. Briefly: Rhipicephalus sanguineus in vitro contact test with adult brown dog ticks. The note with it: application rate 5 μg/cm^2 (=500 g/ha), after 48 h, adult dog ticks dead or moribund. On the procedure: Rhipicephalus sanguineus—In Vitro Contact Tests with Adult Brown Dog Ticks
as §1
After the solvent has evaporated off, the tubes are populated with 5-10 adult dog ticks (Rhipicephalus sanguineus), sealed with a perforated plastic lid and incubated in a horizontal position in the dark at room temperature and ambient humidity. After 48 h, efficacy is determined. To this end, the ticks are knocked to the base of the tube and incubated on a hotplate at 45-50° C. for not more than 5 min. Ticks which remain motionless on the base or move in such an uncoordinated manner that they are unable to deliberately avoid the heat by climbing upwards are considered to be dead or moribund.
An efficacy of 100% means that all the ticks were dead or moribund. 0% efficacy means that none of the ticks were harmed.

Experiment [7] relates to Lucilia cuprina. Nature of the experiment: Lucilia cuprina test. The note with it: application rate 100 ppm, L1 larvae, after 2 days.
Experiment [8] has as its system Ctenocephalides felis. Nature of the experiment: Ctenocephalides felis oral test. The note with it: application rate 100 ppm in citrated cattle blood, after 2 days.

As for `O=C(NC1CC1)c1cc(-c2cnn(-c3c(Cl)cc(C(F)(C(F)(F)F)C(F)(F)F)cc3Cl)c2)sc1Br` [I-T1-1], the Emax at 100 g/ha in experiment [1] (Phaedon cochleariae, 168 h, PHAECO, 100 g ai/ha, 7 dat, read-out: % efficacy dat) worked out at 100%; in experiment [2] (Myzus persicae, 120 h, MYZUPE, 100 g ai/ha, 5 dat, read-out: % efficacy dat), 100%; in experiment [5] (Tetranychus urticae, 144 h, TETRUR, 100 g ai/ha, 6 dat, read-out: % efficacy dat) it was 70%. Also, the pest or weed control at 100 g/ha in experiment [1] (Phaedon cochleariae, 168 h, application rate 100 g/ha, spray, after 7 days, read-out: efficacy) came to 100%. Further, the efficacy in experiment [2], in experiment [4], in experiment [5] (application rate 20 g/ha) and in experiment [6] was 100% throughout. Also, the “efficacy (rate of extermination)” value in experiment [3], in experiment [7] and in experiment [8] was 100% in each case.
Turning to `Cc1sc(-c2cnn(-c3c(Cl)cc(C(F)(C(F)(F)F)C(F)(F)F)cc3Cl)c2)cc1C(=O)NC1CC1` [I-T1-11], the efficacy is listed as 100% in experiment [1] (application rate 100 g/ha, spray, after 7 days); 90% in experiment [2]; 100% in experiment [4]; 100% in experiment [5] (application rate 20 g/ha); 100% in experiment [5] (application rate 100 g/ha); 100% in experiment [6]. The “efficacy (rate of extermination)” value in experiment [3], in experiment [7] and in experiment [8] was 100% each time.
